Where “and” joins values, the source holds several entries; their conditions need not be identical. Identical values can stand only once. Like-named read-outs stand apart in the source and are kept apart here.
How the values were obtained:
[1] = pKa of the coordinated aqua ligand by UV–vis pH titration; format: physicochemical; conditions: [M(arene/arenyl)(ligand)(H2O)]2+; chloride-free; I = 0.2 M KNO3; t = 25 °C
Experimental: The K a values of the complexes with BP and DCP ligands for the [M(η^6-arene/η^5-arenyl)(ligand)(H2O)]^2+ ⇌ [M(η^6-arene/η^5-arenyl)(ligand)(OH)]^+ + H^+ process also provide valuable insights into their behavior in aqueous solutions. In order to determine the K a values, UV–vis spectra were recorded at different pH values under chloride-free conditions, as shown for the complex RuCymDCP in Figure , and the determined pK a values are presented in Table . […] However, at higher pH values, spectral shifts indicate the onset of aqua ligand deprotonation. For RuCym complexes, the calculated pK a values (Table ) indicate moderate acidity and a higher tendency for deprotonation at physiological pH compared with the RhCp* complexes. […] This lower value is most likely due to the stronger tendency of IrCp*, as well as RuCym, to undergo hydrolysis compared to RhCp*.
An Agilent Cary 8454 diode array spectrophotometer was utilized to obtain UV–vis spectra in the wavelength range 190–1100 nm; the path length was 1 cm. The concentrations of the complexes were between 20 and 100 μM. The actual pH of the samples were measured with an Orion 710A pH-meter equipped with a Metrohm combined electrode (type 6.0234.100) and the pH titrations were performed by a KOH solution using a Metrohm 665 Dosimat buret at 25.0 °C. […] The computer program HypSpec was used to calculate the equilibrium constants.

[2] = target: T1, HSA Sudlow’s site I (IIA subdomain) (Homo sapiens, UniProt P02768); test: warfarin (WF) site marker displacement on HSA; format: binding; conditions: PBS’; t = 25 °C; HSA–WF 1:1, 1.2 μM
T1 construct: purchased Sigma-Aldrich A8763
T1 sequence (P02768 25-609): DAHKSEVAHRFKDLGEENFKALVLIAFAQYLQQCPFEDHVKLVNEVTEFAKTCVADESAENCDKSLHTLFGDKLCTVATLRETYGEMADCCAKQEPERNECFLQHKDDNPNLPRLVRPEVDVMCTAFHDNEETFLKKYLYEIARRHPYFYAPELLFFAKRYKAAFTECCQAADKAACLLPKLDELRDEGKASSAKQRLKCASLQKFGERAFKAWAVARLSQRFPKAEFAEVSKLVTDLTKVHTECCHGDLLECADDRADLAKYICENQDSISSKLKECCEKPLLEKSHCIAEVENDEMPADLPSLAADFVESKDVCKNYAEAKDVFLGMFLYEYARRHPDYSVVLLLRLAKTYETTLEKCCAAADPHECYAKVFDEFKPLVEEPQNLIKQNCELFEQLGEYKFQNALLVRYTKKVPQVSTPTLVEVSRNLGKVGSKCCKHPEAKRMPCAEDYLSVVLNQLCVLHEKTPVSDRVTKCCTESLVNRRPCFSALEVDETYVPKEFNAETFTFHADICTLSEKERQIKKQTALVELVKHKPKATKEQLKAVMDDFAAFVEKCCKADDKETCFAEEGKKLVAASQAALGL
Experimental: To further explore the binding affinity and site specificity of the metal complexes, site marker displacement experiments were conducted using WF and DG, which bind to Sudlow’s site I (in IIA subdomain) and to Sudlow’s site II (in IIIA subdomain), respectively. The displacement of these fluorescence probes directly confirms the interactions of the metal complexes with the respective binding sites. The displacement constants of WF (KWF′) by the metal complexes (Figure c,d, Table ) were correlated with the Trp-214 quenching data.
Fluorescence measurements were carried out on a Fluoromax (Horiba Jobin Yvon) spectrofluorometer using a 1 cm × 1 cm quartz cuvette in order to assess the interactions of the complexes with HSA in PBS’ medium at 25 °C. The calculated quenching or displacement conditional constants for the HSA-complex species were obtained using the computer program HypSpec. Calculations always were based on data obtained from at least two independent measurements. Self-absorbance and inner filter effect had to be taken into account, and corrections were made as it was described in our former works. ,
Table S7. Conditions applied for steady -state spectrofluorometric measurements.
cHSA cMARKER ccomplex λEX λEM slit widths
(μM) (μM) (μM) (nm) (nm) EX/EM […]
S.; Deflon, V. M.; Ferreira, A. G.; Cominetti, M. R.; Batista, A. A. Cytotoxicity of Ru(II) Piano-
Stool Complexes with Chloroquine and Chelating Ligands against Breast and Lung Tumor Cells:
Interactions with DNA and BSA. J Inorg Biochem 2015, 153, 150–161.
Van Deun, R.; Van Hecke, K. Antitumor Activity of Organoruthenium Complexes with Chelate

MES-SA mCherry = test: fluorescent triple coculture cytotoxicity assay; format: cell-based, human
Excerpt: (§1) Cytotoxicity of the compounds were further tested also in an in vitro MDR model system, consisting of an MES-SA uterine sarcoma cell line, and its P-gp (ABCB1) overexpressing variants MES-SA/B1, that was genetically engineered to express P-gp, and MES-SA/Dx5, which acquired a P-gp-mediated MDR phenotype due to selection in doxorubicin. , The expression of different fluorescent proteins in each line (mCherry, mOrange, or eGFP) allowed coculturing of these three cell lines, providing more relevant data compared to monocultures, as the interaction between parental and resistant phenotypes is reflected in cytotoxicity.
(§2) Cytotoxicity of nanoformulated [RhCp*(BP)-Cl]-Cl with cross-linked HSA and HTP carriers was tested against the previously introduced triple coculture of fluorescent MES-SA cells with a slight difference. Namely, the media containing the dissolved products were removed from the wells, and fresh media was added prior to the measurement as the presence of cross-linked HSA and HTP formulations interfered with the fluorescence of the cells.
(§3) MDA-MB-231 breast adenocarcinoma and MCF-7 and T-47D invasive breast carcinomas were purchased from the Developmental Therapeutic Program of the National Cancer Institute (NIH, USA), and they were cultured in RPMI medium (Thermo Fisher). MES–SA and MES–SA/Dx5 uterine sarcoma cell lines were purchased from American Type Culture Collection and were kept in DMEM (Thermo Fisher). MES–SA/B1 was created by the transfection of the human MDR1 gene in MES–SA, and MES–SA mCherry, MES–SA/B1 mOrange, and MES–SA/Dx5 eGFP were engineered to stably express the respective fluorescent proteins, as described previously. Culture media were supplemented with 10% fetal bovine serum, 2 mM L-glutamine, 100 units/mL penicillin, and 100 μg/mL streptomycin (Thermo Fisher). Cells were kept at 37 °C under 5% CO2 and were negative for mycoplasma infection.
(§4) Cytotoxicity of the nonfluorescent cancer cells (MDA-MB-231, MCF-7, T-47D) were assessed with PrestoBlue cell viability reagent (Thermo Fisher). Briefly, 2500 cells/well were seeded on 384-well plates, and then the next day drugs were added. After 72 h incubation, PrestoBlue was added in a 10% final concentration, and after an hour of additional incubation, plates were measured with a PerkinElmer EnSpire plate reader at 555 nm/585 nm excitation/emission wavelengths. […] Drugs were added the following day, and the intensity of the fluorescent proteins were measured after 144 h incubation at the respective fluorescent channels (excitation/emission: eGFP: 485 nm/510 nm; mCherry: 585 nm/610 nm; mOrange: 545 nm/567 nm). pIC50 values were calculated by a custom program written by Judit Sessler in C#. IC50 values and standard deviation were calculated from average pIC50 values from at least 3 independent measurements. Since the IC50 values were obtained through nonlinear regression fitting of the viability vs. log(concentration) data, the resulting confidence intervals are inherently asymmetric (see pIC50 values and their corresponding SD in Tables S5 and S6).

MES-SA/B1-mOrange = test: fluorescent triple coculture cytotoxicity assay; format: cell-based, human; conditions: for SR (MES-SA/B1): selectivity ratio versus parental MES-SA
Excerpt: as §1, §2, §3, §4

MES-SA/Dx5-eGFP = test: fluorescent triple coculture cytotoxicity assay; format: cell-based, human; conditions: for SR (MES-SA/Dx5): selectivity ratio versus parental MES-SA
Excerpt: as §1, §2, §3, §4

[3] = MES-SA mCherry, coculture, 384-well plate, 144 h, read-out: IC50
[4] = Mes-Sa mCherry, 384-well plate, Table S6
[5] = MES-SA/B1-mOrange, coculture, 384-well plate, 144 h, read-out: IC50
[6] = Mes-Sa/B1 mOrange, 384-well plate, Table S6
[7] = MES-SA/Dx5-eGFP, coculture, 384-well plate, 144 h, read-out: IC50
[8] = Mes-Sa/Dx5 eGFP, 384-well plate, Table S6
[9] = Homo sapiens, MES-SA, 144 h, MES-SA mCherry, coculture, 384-well plate, 144 h, read-out: IC50
[10] = Homo sapiens, MES-SA, Mes-Sa mCherry, 384-well plate, Table S6, read-out: pIC50 (mean) (converted)
[11] = Homo sapiens, MES-SA/B1-mOrange, coculture, 384-well plate, 144 h, read-out: IC50
[12] = Homo sapiens, Mes-Sa/B1 mOrange, 384-well plate, Table S6, read-out: pIC50 (mean) (converted)
[13] = Homo sapiens, MES-SA/Dx5-eGFP, coculture, 384-well plate, 144 h, read-out: IC50
[14] = Homo sapiens, Mes-Sa/Dx5 eGFP, 384-well plate, Table S6, read-out: pIC50 (mean) (converted)

Compound	pK a [ML(H2O)] [1]	logK WF′ (WF displacement constant) [2]	IC50 (MES-SA mCherry; [3]) [µM]	pIC50 (mean) (MES-SA mCherry; [4])	IC50 (MES-SA/B1-mOrange; [5]) [µM]	pIC50 (mean) (MES-SA/B1-mOrange; [6])	SR (MES-SA/B1) (MES-SA/B1-mOrange; 384-well plate)	IC50 (MES-SA/Dx5-eGFP; [7]) [µM]	pIC50 (mean) (MES-SA/Dx5-eGFP; [8])	SR (MES-SA/Dx5) (MES-SA/Dx5-eGFP; 384-well plate)	IC50 (MES-SA mCherry; [9]) [µM]	IC50 (MES-SA mCherry; [10]) [µM]	IC50 (MES-SA/B1-mOrange; [11]) [µM]	IC50 (MES-SA/B1-mOrange; [12]) [µM]	IC50 (MES-SA/Dx5-eGFP; [13]) [µM]	IC50 (MES-SA/Dx5-eGFP; [14]) [µM]	further results
Cc1ccc(C(C)C)cc1.[Cl-].[Cl-].[Ru+2].c1ccc(-c2ccnc3c2ccc2c(-c4ccccc4)ccnc23)cc1 [RuCymBP, [Ru(II)(η^6-p-cymene)(bathophenanthroline)Cl]Cl]	7.57 ± 0.06	4.4 ± 0.1	0.53	6.28	55	4.26	0.01	41	4.39	0.01	–	–	–	–	–	–	–
Clc1ccnc2c1ccc1c(Cl)ccnc12 [DCP, 4,7-dichloro-1,10-phenanthroline]	–	–	3.05	–	–	–	0.6	–	–	6.3	3.1	3.02	4.9	4.9	0.48	0.49	–
c1ccc(-c2ccnc3c2ccc2c(-c4ccccc4)ccnc23)cc1 [BP, 4,7-diphenyl-1,10-phenanthroline]	–	–	–	–	–	–	3.4	–	–	54.7	0.47	0.468	0.14	0.138	0.01	0.00851	–
[Rh(III)(η^5-C5Me5)(bathophenanthroline)Cl]Cl [RhCp*BP]	8.81 ± 0.06	5.6 ± 0.1	–	5.81	1.37	5.86	1.1	0.23	6.63	6.7	–	–	–	–	–	–	IC50 (MES-SA mCherry; MES-SA mCherry, coculture, 96-well plate, media replaced before measurement, read-out: IC50): 2.9 µM; IC50 (MES-SA mCherry; MES-SA mCherry, coculture, 384-well plate, 144 h, listed as [RhCp*(BP)Cl]Cl, read-out: IC50): 1.56 µM; pIC50 (mean) (MES-SA mCherry; Mes-Sa mCherry, 96-well plate, Table S6): 5.54; IC50 (MES-SA/B1-mOrange; MES-SA/B1-mOrange, coculture, 96-well plate, media replaced before measurement, read-out: IC50): 2.43 µM; pIC50 (mean) (MES-SA/B1-mOrange; Mes-Sa/B1 mOrange, 96-well plate, Table S6): 5.61; SR (MES-SA/B1) (MES-SA/B1-mOrange; 96-well plate): 1.2; IC50 (MES-SA/Dx5-eGFP; MES-SA/Dx5-eGFP, coculture, 96-well plate, media replaced before measurement, read-out: IC50): 1.77 µM; pIC50 (mean) (MES-SA/Dx5-eGFP; Mes-Sa/Dx5 eGFP, 96-well plate, Table S6): 5.75; SR (MES-SA/Dx5) (MES-SA/Dx5-eGFP; 96-well plate): 1.6
Cc1c(C)c(C)[c-](C)c1C.Clc1ccnc2c1ccc1c(Cl)ccnc12.[Cl-].[Cl-].[Rh+3] [RhCp*DCP, [Rh(III)(η^5-C5Me5)(4,7-dichloro-1,10-phenanthroline)Cl]Cl]	8.33 ± 0.05	4.8 ± 0.1	–	5.38	6.38	5.20	0.7	0.75	6.12	5.6	–	–	–	–	–	–	IC50 (MES-SA mCherry; MES-SA mCherry, coculture, 384-well plate, 144 h, listed as [RhCp*(DCP)Cl]Cl, read-out: IC50): 4.2 µM and 4.22 µM
Cc1ccc(C(C)C)cc1.Clc1ccnc2c1ccc1c(Cl)ccnc12.[Cl-].[Cl-].[Ru+2] [RuCymDCP, [Ru(II)(η^6-p-cymene)(4,7-dichloro-1,10-phenanthroline)Cl]Cl]	7.21 ± 0.06	≤4.3	65.6	4.18	> 100	–	–	> 100	–	–	–	–	–	–	–	–	–
